# In patent EP4617273A1, “FUSED TRICYCLIC PARP1 INHIBITOR, PREPARATION METHOD THEREFOR, AND USE THEREOF” (Haihe Biopharma Co., Ltd., priority 2022, dated 2024):
# Columns and labels:
# MDA-MB-436 cells = assay: MDA-MB-436 cell proliferation inhibition test (CellTiter-Glo, 7 days); format: cell-based; conditions: Homo sapiens, MDA-MB-436, 168 h, 7 days incubation
# Protocol: Human breast cancer MDA-MB-436 (purchased from ATCC) cells were cultured in DMEM medium (supplemented with 10% fetal bovine serum with 1% dual antibody) at 37 °C, 5% CO2. The cells were taken from the logarithmic growth phase, digested and prepare cell suspension witha certain concentration, which was inoculated into 96-well plates. 100 µL of cell suspension was added to each well of the 96-well plates, incubated overnight, then different concentrations of compounds were added, and the cells were incubated in the cell culture incubator for 7 days. At the end of incubation, 50 µL of CellTiter-Glo reagent was added to each well, mixed with a microplate and shaked for 2 min, and left at rt for 60 min, then the fluorescence value was read with a Spark® multimode microplate reader. […] Table 2. proliferation inhibitory activity of compounds of the present invention on MDA-MB-436 cells
# MDR1 (P-gp) = assay: MDR1-MDCK II cell model of bidirectional permeability; format: in vitro ADME; conditions: dog, Efflux Ratio = Papp (B-A) / Papp (A-B), read-out: ER ratio
# Protocol: (§1) 2 µM of the test compound was added to the wells at the apical side or the basolateral side of the monolayer of cells and incubated for 2.5 h at 37.0°C in a 5.0% CO2 incubator. Cell monolayer integrity was determined by Lucifer yellowrejection assay. The buffer was removed from the apical side and basolateral side, and the concentration of the subject compounds was determined using LC-MS/MS. The concentration data were used to calculate the apparent permeabilitycoefficients of apical-to-basolateral (A-B) and basolateral-to-apical (B-A)side, and to calculate efflux ratio with the formula: Efflux Ratio = Papp (B-A) / Papp (A-B) Table 3. bidirectional permeability of MDR1-MDCK II cells for compounds of the present invention
# MDR1 = assay: as above; format: in vitro ADME; conditions: dog, 2 µM, 2.5 h; for Papp A→B at 2.5 h, 2 µM: apical-to-basolateral; for Papp B→A at 2.5 h, 2 µM: basolateral-to-apical
# Protocol: as §1
# [1] = target: T1, recombinant human PARP2 protein (Homo sapiens, UniProt Q9UGN5); assay: PARP2 enzymatic inhibitory activity, histone substrate, chemiluminescent ELISA; format: biochemical; conditions: histone substrate, 500 µM NAD+ not added; read-out: PARP2 IC50
# T1 construct: purchased BPS 80502
# T1 sequence (Q9UGN5 whole entry): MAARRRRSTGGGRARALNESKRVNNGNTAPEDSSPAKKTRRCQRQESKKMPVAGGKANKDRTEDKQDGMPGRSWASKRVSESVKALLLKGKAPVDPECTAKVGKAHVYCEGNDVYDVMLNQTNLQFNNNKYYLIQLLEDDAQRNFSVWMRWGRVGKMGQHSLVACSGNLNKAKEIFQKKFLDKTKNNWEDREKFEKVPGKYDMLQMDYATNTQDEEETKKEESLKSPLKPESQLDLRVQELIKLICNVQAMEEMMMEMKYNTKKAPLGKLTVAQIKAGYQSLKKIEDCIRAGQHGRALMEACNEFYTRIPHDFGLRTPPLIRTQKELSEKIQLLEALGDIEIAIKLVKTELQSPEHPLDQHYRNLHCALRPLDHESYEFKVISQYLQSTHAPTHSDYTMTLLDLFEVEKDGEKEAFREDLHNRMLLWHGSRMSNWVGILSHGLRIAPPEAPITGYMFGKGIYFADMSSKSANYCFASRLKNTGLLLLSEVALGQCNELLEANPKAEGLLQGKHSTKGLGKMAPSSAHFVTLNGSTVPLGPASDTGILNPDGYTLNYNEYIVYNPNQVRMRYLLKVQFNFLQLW
# Protocol: The PARP2 inhibitory activity assay was performed as in Experimental Method 1, except that PARP1 solution in step 2 of "3. Ribosylation reaction" was replaced with recombinant human PARP2 solution, and 500 µM NAD+ was not added in step 5 of the ribosylation reaction. Table 1. IC50 for inhibition of PARP1/2 enzymes by compounds of the present invention
# [2] = Preliminary pharmacokinetic test in mice; format: in vivo; conditions: male, ICR; for AUC(0-t) / clearance / half-life: mouse plasma; for bioavailability: plasma, oral, mouse, p.o. 5 mg/kg versus i.v. 1 mg/kg
# Protocol: 1. Healthy ICR mice were administered the tested compounds intravenously (1 mg/kg) or by gavage (5 mg/kg). Nine male mice weighing 30-35 g for each route of administration were randomly divided into three groups of three mice each.
# The mice were fasted for 12h before the test and allowed to drink water freely. The mice were fed 4h after the administration.
# Intravenous and gavage administration: 0.25h, 0.5h, 1.0h, 2.0h, 3.0h, 4.0h, 6.0h, 8.0h and 24h after administration.
# Blood was collected continuously, and 3 animals were collected at each time point. Plasma collection and processing: 30-40 µL of venous blood was collected from the mouse retroorbital venous plexus at the above set time points, placed in an EDTA-K2 test tube, centrifuged at 3500 rpm for 10 min, and plasma was separated and frozen in a -20 °C refrigerator.
# The concentration of the compounds in mouse plasma was determined by LC/MS/MS. Pharmacokinetic parameters after administration were calculated using the […] of Phoenix 8.3 software (Pharsight, USA).
# [3] = target: T2, Recombinant human PARP1 protein (Homo sapiens, UniProt P09874); assay: biochemical
# T2 sequence (P09874 whole entry): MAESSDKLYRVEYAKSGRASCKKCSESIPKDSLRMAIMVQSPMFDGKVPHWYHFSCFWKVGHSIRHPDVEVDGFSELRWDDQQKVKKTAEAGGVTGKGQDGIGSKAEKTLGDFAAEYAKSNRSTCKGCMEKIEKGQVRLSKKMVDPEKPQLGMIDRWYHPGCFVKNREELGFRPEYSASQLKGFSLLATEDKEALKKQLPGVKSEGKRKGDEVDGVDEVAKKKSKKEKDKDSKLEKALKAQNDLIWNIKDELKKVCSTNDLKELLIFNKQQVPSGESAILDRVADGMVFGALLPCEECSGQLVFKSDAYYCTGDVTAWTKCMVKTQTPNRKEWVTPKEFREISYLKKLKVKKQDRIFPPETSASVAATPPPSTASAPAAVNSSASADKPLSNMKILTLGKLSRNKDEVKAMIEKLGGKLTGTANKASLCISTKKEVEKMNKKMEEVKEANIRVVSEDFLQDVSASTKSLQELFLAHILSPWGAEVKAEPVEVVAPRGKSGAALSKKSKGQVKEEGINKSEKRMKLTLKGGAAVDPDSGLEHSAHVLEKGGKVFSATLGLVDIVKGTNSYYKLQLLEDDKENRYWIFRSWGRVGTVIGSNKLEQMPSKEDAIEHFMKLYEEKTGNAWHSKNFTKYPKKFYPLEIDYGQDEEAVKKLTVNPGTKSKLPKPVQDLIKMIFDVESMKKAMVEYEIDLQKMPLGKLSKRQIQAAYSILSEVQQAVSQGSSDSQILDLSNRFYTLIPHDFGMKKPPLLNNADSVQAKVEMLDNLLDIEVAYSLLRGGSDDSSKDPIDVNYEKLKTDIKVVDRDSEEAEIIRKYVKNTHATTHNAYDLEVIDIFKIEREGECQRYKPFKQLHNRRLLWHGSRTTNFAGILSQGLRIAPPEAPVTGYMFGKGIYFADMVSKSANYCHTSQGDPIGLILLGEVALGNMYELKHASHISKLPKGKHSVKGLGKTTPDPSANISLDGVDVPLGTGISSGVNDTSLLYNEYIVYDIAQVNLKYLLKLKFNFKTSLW
# Protocol: (§2) The PARP1/2 inhibitory activity of the compounds of the present invention was tested in an assay using Histone as a substrate.
# (§3) Aim of the assay: to test the PARP1/2 enzymatic activity inhibition IC50 values of the compounds of the present application according to established experimental methods.
# (§4) 1. Compound Configuration: Dilute the compounds with DMSO in 384-well plates to a 1000-fold final concentration and set aside.
# (§5) 1) Dilute Histone with PBS, add 25uL of Histone mixture to each well and incubate for 2 h. 2) Wash each well 5 times using PBST solution. Remove the solution with a clean paper towel.3) Add 75 uL of Blocking buffer to each well and incubate for 1 h at rt. 4) Wash each well 5 times using PBST solution. Remove the solution with a clean paper towel.
# (§6) 2) Use 1× Assay buffer to prepare 2.5× final concentration of PARP1 solution. 3) Add 10 uL of enzyme solution to the compound wells and Max control wells; add 10 uL of 1× Assay buffer. […] 6) Centrifuge at 1000 rpm for 60 seconds and incubate at rt for 2 h. 7) Each well was washed 5 times with PBST solution. Remove the solution with a clean paper towel.
# (§7) 1) Prepare Streptavidin-HRP solution, add 25 µL to each well, centrifuge at 1000 rpm for 60 sec, and incubate at rt for 30 min. 2) Wash each well 5 times using PBST solution. Remove the solution with a clean paper towel. 3) Add 50 µL of ELISA Chemiluminescent Substrate per well. 4) Centrifuge at 1000 rpm for 60 seconds and read with EnSight after 5 min.
# (§8) The inhibition rate was calculated using the following formula: % inhibition = (max signal - compound signal) / (max signal - min signal) × 100, where 'min signal' is the mean value of negative control wells and 'max signal' is the mean value of positive control wells.
# (§9) Fitting the quantitative effect curve: using the log value of the concentration as the X-axis and the percentage inhibition as the Y-axis; using the log(inhibitor) vs. response-variable slope method in software GraphPadPrism5 to fit the quantitative effect curve to calculate the IC50 value for the inhibition of the enzyme activity by the compounds of the present invention. The fitting formula is: Y=Bottom+ (Top-Bottom)/(1+10^((logIC50-X)*HillSlope)).
# [4] = target: T2, Recombinant human PARP1 protein; assay: PARP1 enzymatic inhibitory activity, histone substrate, chemiluminescent ELISA; conditions: PARP2 IC50 over PARP1 IC50
# Protocol: as §2, §3, §4, §5, §6, §7, §8, §9
SMILES,IC50 (MDA-MB-436 cells) [nM],"efflux ratio at 2.5 h, 2 µM (MDR1 (P-gp))","Papp A→B at 2.5 h, 2 µM (MDR1) [×10⁻⁶ cm/s]","Papp B→A at 2.5 h, 2 µM (MDR1) [×10⁻⁶ cm/s]",IC50 [1] [nM],"AUC(0-t) ([2]; iv, i.v. 1 mg/kg) [ng·h/mL]","clearance ([2]; iv, i.v. 1 mg/kg) [mL/min/kg]","half-life ([2]; iv, i.v. 1 mg/kg) [min]",bioavailability [2] [%],"AUC(0-t) ([2]; po, p.o. 5 mg/kg) [ng·h/mL]","half-life ([2]; po, p.o. 5 mg/kg) [min]",IC50 [3] [nM],PARP1/2 Fold selectivity [4]
CNC(=O)c1ccc(N2CCN(Cc3ccc4nc(C)c(=O)[nH]c4c3F)CC2)c(F)n1 [AZD-9574],15.7,1,19.4,19.4,–,–,–,–,–,–,–,–,–
CNC(=O)c1ccc(N2CCN(Cc3ccc4c(c3F)NC(=O)N3C[C@@H](C)N=C43)CC2)c(Cl)n1 [Compound 154],0.33,1.64,13.9,22.8,1130,7240,2.3,66,62.1,22500,138,1.6,706.9
CNC(=O)c1ccc(N2CCN(Cc3ccc4c(c3F)NC(=O)N3C[C@@H](C)N=C43)CC2)c(F)n1 [Compound 132],12.1,2.1,12.8,26.8,288,6630,2.8,180,98.7,33100,264,1.5,191.8
CNC(=O)c1ccc(N2CCN(Cc3ccc4c(c3F)NC(=O)N3CC(F)(F)CN=C43)CC2)c(C)n1 [Compound 160],5.7,–,14.3,8.78,–,10500,1.6,51.6,70.7,26100,54,0.59,–
